# Laboratory results as given in EP4678638A1, “NEW E3 UBIQUITIN LIGASE LIGAND, PROTEIN DEGRADATION AGENT AND USE THEREOF” (priority 2023, dated 2024).
# How the values were obtained:
# CDK6 = biological target: T1, CDK6 (Homo sapiens, UniProt Q00534); assay: Western blot degradation of CDK6 (MDA-MB-231 Cell); format: cell-based; details: Table D3
# T1 construct: evaluate the effects of the compounds of the present disclosure on the expression of target proteins in cells; endogenous in cells; host or cells: MDA-MB-231
# How it was run: (§1)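 Quantification by ImageJ densitometry of Western blot bands: DC50 is the fitted concentration halving band intensity relative to DMSO. Percent remaining uses internal-control normalization, and degradation rate is its complement.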
# CDK4 = biological target: T2, CDK4 (Homo sapiens, UniProt P11802); assay: Western blot degradation of CDK4 (MDA-MB-231 Cell); format: cell-based; details: Table D3
# T2 construct: evaluate the effects of the compounds of the present disclosure on the expression of target proteins in cells; endogenous in cells; host or cells: MDA-MB-231
# How it was run: as §1
# MCF7 = assay: CCK-8 proliferation, MCF7 (MCF-7); format: cell-based; details: Homo sapiens, MCF7; CCK-8; read-out: Inhibitory activity (IC50) on tumor cell proliferation, MCF7
# How it was run: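 Cells seeded, then after 24 h treated with 10 concentrations (top 10 µM, 5-fold serial dilution) for a line-specific time at 37°C, 5% CO2. Viability read by CCK-8; IC50 fitted from growth-inhibition curves.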
# CCRF-CEM = assay: CCK-8 proliferation, CCRF-CEM; format: cell-based, Human; details: Homo sapiens, CCRF-CEM; CCK-8; 96 hours; read-out: Inhibitory activity (IC50) on tumor cell proliferation, CCRF-CEM
# Description: The tumor cells used herein were cultured in a cell culture medium listed in table A1 at 37°C in an incubator with 5% CO2. Prior to experimentation, all cell lines used were correctly identified by STR profiling, and tested negative for mycoplasma contamination using a mycoplasma detection kit through routine screenings. Table A1. Tumor cells and cell culture medium used in the present disclosure
# IC50 values of the compounds of the present disclosure (including the compounds in Table 1, and compounds of examples) were measured using the Meilun Cell Counting Kit-8 kit from Dalian Meilun Biotech Co., Ltd. Assay details are as follows: tumor cells were seeded in a 96-well plate at a density listed in Table A2. After 24h, 100 µL of the inoculated cells were treated with 0.5µL of the compounds of the present disclosure (including the compounds in Tables 1 and 2, and compounds of examples) at 10 different successively decreasing concentrations (starting at the highest concentration of 10µM; 5-fold serial dilutions). After the cells were treated with the compounds of the present disclosure for a period of time, the cell viability detection reagent was added to the culture medium for cell viability assessment according to the instructions provided with the CCK-8 kit. […] The growth inhibition of the compounds of the present disclosure on cells was plotted by Prism Graphpad software, and the IC50 values of the compounds of the present disclosure were calculated therefrom. […] Seeding protocol and treatment time for tumor cells
# RSK2 = biological target: T3, RSK2 (Homo sapiens, UniProt P51812); assay: Western blot degradation of RSK2 (hPBMC); format: cell-based; details: Table D8
# T3 construct: evaluate the effects of the compounds of the present disclosure on the expression of target proteins in cells; endogenous in cells; host or cells: hPBMC
# Description: (§2) Conventional Western blot assay was performed to evaluate the effects of the compounds of the present disclosure on the expression of target proteins in cells.
# (§3) (1) Cell Seeding and Protein Harvesting: The selected cells were processed according to the cell seeding procedure and protein harvesting procedure in Table III-2. Table III-2 Cell Seeding and Protein Harvesting Procedures
# (§4) (2) To the collected supernatant, 5X SDS sample loading buffer was added, followed by denaturation at 95°C for 5 minutes. The denatured samples were then separated by SDS-PAGE electrophoresis on a polyacrylamide gel. Proteins were transferred to a nitrocellulose membrane (0.45 µm NC membrane), blocked with blocking buffer at room temperature for 1 hour, and subjected to antibody incubation and development procedures according to the antibody manufacturer's instructions (Cell Signaling Technology).
# (§5) Half-Maximal Degradation Concentration value (the drug concentration required for degrading proteins by 50%, abbreviated as DC50) reads method: comparing the grayscale values of Western blot bands from drug-treated samples with those from blank DMSO-treated controls, and identifying the drug concentration range at which the grayscale value is half that of the DMSO-treated control bands.
# (§6) DC50 values can be calculated using ImageJ software to measure grayscale values of Western blot bands from drug-treated samples. The concentration-response curve is fitted to estimate the drug concentration corresponding to half the grayscale value.
# (§7) Target protein remaining (%) refers to the percentage of target protein remaining in hPBMC cells after treatment with protein degrader compounds.
# (§8) Calculation method for target protein remaining (%): Use ImageJ software to measure grayscale values of Western blot bands from drug (protein degrader)-treated samples. The grayscale value of drug-treated bands is divided by that of internal control protein bands, and the resulting quotient is normalized to obtain the relative percentage of remaining target protein after protein degrader treatment.
# (§9) Target protein degradation rate (%) = 100% - target protein remaining (%).
# RSK1 = biological target: T4, RSK1 (Homo sapiens, UniProt Q15418); assay: Western blot degradation of RSK1 (hPBMC); format: cell-based; details: Table D8
# T4 construct: evaluate the effects of the compounds of the present disclosure on the expression of target proteins in cells; endogenous in cells; host or cells: hPBMC
# Description: as §2, §3, §4, §5, §6, §7, §8, §9
# [1] = biological target: T5, human Cereblon WT GST-tagged protein (Homo sapiens, UniProt Q96SW2); assay: CRBN binding, HTRF (CEREBLON BINDING kit); details: Table II-2, CRBN binding screening, HTRF
# T5 construct: purchased CISBIO 64BDCRBNPEH
# How it was run: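 Competitive HTRF: GST-tagged human WT Cereblon mixed with compound, Thalidomide-Re tracer and GST Eu antibody, incubated 3 h at room temperature. Signals read at 620 and 665 nm.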
# T2 sequence (P11802 whole entry): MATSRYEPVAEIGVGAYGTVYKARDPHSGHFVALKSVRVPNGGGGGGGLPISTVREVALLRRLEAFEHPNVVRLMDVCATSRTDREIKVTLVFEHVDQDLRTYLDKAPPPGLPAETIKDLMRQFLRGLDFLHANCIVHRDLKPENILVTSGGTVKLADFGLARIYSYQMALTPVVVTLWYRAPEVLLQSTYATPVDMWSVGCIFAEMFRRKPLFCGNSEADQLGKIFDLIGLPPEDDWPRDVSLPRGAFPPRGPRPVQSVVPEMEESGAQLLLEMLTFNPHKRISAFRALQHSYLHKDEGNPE
# T1 sequence (Q00534 whole entry): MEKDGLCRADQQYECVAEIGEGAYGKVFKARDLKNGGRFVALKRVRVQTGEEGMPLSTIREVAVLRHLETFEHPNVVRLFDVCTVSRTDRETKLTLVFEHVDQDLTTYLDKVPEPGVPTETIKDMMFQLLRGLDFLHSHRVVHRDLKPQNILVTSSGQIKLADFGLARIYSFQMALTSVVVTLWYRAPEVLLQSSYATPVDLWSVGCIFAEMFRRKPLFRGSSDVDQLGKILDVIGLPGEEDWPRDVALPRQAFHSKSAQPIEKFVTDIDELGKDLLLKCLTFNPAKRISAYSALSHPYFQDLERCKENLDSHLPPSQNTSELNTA
# T4 sequence (Q15418 whole entry): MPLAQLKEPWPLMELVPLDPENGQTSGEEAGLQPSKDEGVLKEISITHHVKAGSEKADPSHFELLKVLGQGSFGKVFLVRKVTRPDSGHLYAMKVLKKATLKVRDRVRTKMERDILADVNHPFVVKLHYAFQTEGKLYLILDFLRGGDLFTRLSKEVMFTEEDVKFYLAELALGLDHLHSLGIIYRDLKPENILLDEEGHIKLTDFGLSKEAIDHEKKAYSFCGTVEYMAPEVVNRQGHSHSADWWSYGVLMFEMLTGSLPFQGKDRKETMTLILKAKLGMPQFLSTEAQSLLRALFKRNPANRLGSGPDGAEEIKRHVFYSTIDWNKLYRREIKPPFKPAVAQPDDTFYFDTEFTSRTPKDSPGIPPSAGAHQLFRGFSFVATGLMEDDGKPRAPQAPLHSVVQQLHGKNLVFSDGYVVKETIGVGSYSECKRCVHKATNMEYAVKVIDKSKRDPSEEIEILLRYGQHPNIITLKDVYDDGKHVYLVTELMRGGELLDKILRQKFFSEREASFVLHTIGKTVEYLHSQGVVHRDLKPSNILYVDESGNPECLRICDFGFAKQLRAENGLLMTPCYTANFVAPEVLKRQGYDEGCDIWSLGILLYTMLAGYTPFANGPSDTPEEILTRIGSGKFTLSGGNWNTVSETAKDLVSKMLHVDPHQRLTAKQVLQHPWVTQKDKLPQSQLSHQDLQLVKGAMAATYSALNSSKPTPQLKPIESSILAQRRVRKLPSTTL
# T3 sequence (P51812 whole entry): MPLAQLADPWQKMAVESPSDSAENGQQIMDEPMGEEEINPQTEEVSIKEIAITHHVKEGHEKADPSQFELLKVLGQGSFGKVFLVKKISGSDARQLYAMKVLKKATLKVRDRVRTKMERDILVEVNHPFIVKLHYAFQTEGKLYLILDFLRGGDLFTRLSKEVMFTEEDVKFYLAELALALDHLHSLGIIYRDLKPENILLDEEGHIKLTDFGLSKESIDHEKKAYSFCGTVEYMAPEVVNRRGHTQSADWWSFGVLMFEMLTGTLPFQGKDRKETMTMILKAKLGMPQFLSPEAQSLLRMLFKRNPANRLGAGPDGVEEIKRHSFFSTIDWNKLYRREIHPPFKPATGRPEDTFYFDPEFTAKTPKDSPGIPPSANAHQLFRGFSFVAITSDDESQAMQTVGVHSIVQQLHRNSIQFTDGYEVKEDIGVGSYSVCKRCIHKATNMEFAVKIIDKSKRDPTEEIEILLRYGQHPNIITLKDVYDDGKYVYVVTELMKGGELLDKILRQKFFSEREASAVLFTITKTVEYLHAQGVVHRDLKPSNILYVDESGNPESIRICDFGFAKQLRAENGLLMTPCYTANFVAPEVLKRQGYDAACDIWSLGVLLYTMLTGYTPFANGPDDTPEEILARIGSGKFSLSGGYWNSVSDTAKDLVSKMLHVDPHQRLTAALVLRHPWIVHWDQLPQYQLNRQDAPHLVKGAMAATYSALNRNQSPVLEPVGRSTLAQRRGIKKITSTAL
# T5 sequence (Q96SW2 whole entry): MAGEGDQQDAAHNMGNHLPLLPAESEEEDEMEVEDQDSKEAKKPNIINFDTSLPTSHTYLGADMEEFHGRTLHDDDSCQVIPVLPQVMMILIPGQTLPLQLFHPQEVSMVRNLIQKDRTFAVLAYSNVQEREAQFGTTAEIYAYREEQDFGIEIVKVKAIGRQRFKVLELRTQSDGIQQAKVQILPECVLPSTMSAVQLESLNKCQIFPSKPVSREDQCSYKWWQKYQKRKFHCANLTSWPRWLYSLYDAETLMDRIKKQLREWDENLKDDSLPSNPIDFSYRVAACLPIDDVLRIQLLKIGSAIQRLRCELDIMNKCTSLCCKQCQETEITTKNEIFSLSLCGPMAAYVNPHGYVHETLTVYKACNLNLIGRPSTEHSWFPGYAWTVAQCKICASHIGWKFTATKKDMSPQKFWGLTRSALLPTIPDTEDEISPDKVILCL
Structure (SMILES),Degradation of substrate protein CDK6 (substrate protein remaining %) (CDK6),Degradation of substrate protein CDK4 (substrate protein remaining %) (CDK4),IC50 (MCF7),Degradation of substrate protein RSK2 (substrate protein remaining %) (RSK2),Degradation of substrate protein RSK1 (substrate protein remaining %) (RSK1),further results
"CC(=O)c1c(C)c2cnc(Nc3ccc(N4CCN(Cc5ccc(C6CCC(=O)NC6=O)cc5)CC4)cn3)nc2n(C2CCCC2)c1=O (centres unmarked) [GT-06575, 3-(4-((4-(6-((6-acetyl-8-cyclopentyl-5-methyl-7-oxo-7,8-dihydropyrido[2,3-d]pyrimidin-2-yl)amino)pyridin-3-yl)piperazin-1-yl)methyl)phenyl)piperidine-2,6-dione]",A (A is defined as 0% ≤ substrate protein remaining % ≤ 80%),A (A is defined as 0% ≤ substrate protein remaining % ≤ 80%),100 to 500 nM,–,–,–
"CC(=O)c1c(C)c2cnc(Nc3ccc(N4CCN(Cc5ccc(N6CCC(=O)NC6=O)cn5)CC4)cn3)nc2n(C2CCCC2)c1=O [GT-06578, 1-(6-((4-(6-((6-acetyl-8-cyclopentyl-5-methyl-7-oxo-7,8-dihydropyrido[2,3-d]pyrimidin-2-yl)amino)pyridin-3-yl)piperazin-1-yl)methyl)pyridin-3-yl)dihydropyrimidine-2,4(1H,3H)-dione]",A (A is defined as 0% ≤ substrate protein remaining % ≤ 80%),B (B is defined as substrate protein remaining % > 80%),500 to 1000 nM,–,–,–
"CC(=O)c1c(C)c2cnc(Nc3ccc(N4CCN(Cc5cccc(NC6CCC(=O)NC6=O)c5)CC4)cn3)nc2n(C2CCCC2)c1=O (centres unmarked) [GT-06580, 3-((3-((4-(6-((6-acetyl-8-cyclopentyl-5-methyl-7-oxo-7,8-dihydropyrido[2,3-d]pyrimidin-2-yl)amino)pyridin-3-yl)piperazin-1-yl)methyl)phenyl)amino)pip eridine-2,6-dione]",A (A is defined as 0% ≤ substrate protein remaining % ≤ 80%),B (B is defined as substrate protein remaining % > 80%),500 to 1000 nM,–,–,–
"CN(C)C(=O)c1cc2cnc(Nc3ccc(N4CCN(Cc5ccnc(N6CCC(=O)NC6=O)c5)CC4)cn3)nc2n1C1CCCC1 [GT-07475, 7-cyclopentyl-2-((5-(4-((2-(2,4-dioxotetrahydropyrimidin-1(2H)-yl)pyridin-4-yl)methyl)piperazin-1-yl)pyridin-2-yl)amino)-N,N-dimethyl-7H-pyrrolo[2,3-d]pyrimidine-6-carboxamide]",A (A is defined as 0% ≤ substrate protein remaining % ≤ 80%),A (A is defined as 0% ≤ substrate protein remaining % ≤ 80%),–,–,–,IC50 (CCRF-CEM): 500 to 1000 nM
"C[C@@H]1CNC(=O)c2cc3ccc(C(=O)Nc4cnn(Cc5ccc(NCc6cc(N7CCC(=O)NC7=O)ncc6F)cc5)c4)nc3n21 [GT-07794, (R)-N-(1-(4-(((2-(2,4-dioxotetrahydropyrimidin-1(2H)-yl)-5-fluoropyridin-4-yl)methyl)amino)benzyl)-1H-pyrazol-4-yl)-9-methyl-6-oxo-6,7,8,9-tetrahydropyrido[3',2':4,5]pyrrolo[1,2-a]pyrazine-2-carboxamide]",–,–,–,B (B is defined as substrate protein remaining % > 80%),A (A is defined as 0% ≤ substrate protein remaining % ≤ 80%),–
"C[C@@H]1CNC(=O)c2cc3ccc(C(=O)Nc4cnn(Cc5ccc(N6CCN(Cc7cc(N8CCC(=O)NC8=O)ncc7F)CC6)cc5)c4)nc3n21 [GT-07797, (R)-N-(1-(4-(4-((2-(2,4-dioxotetrahydropyrimidin-1(2H)-yl)-5-fluoropyridin-4-yl)methyl)piperazin-1-yl)benzyl)-1H-pyrazol-4-yl)-9-methyl-6-oxo-6,7,8,9-tetrahydropyrido[3',2':4,5]py rrolo[1,2-a]pyrazine-2-carboxamide]",–,–,–,A (A is defined as 0% ≤ substrate protein remaining % ≤ 80%),A (A is defined as 0% ≤ substrate protein remaining % ≤ 80%),–
"C[C@@H]1CNC(=O)c2cc3ccc(C(=O)Nc4cnn(Cc5ccc(N6CCN(Cc7ccnc(N8CCC(=O)NC8=O)c7)CC6)cc5)c4)nc3n21 [GT-07798, (R)-N-(1-(4-(4-((2-(2,4-dioxotetrahydropyrimidin-1(2H)-yl)pyridin-4-yl)methyl)piperazin-1-yl)benzyl)-1H-pyrazol-4-yl)-9-methyl-6-oxo-6,7,8,9-tetrahydropyrido[3',2':4,5]py rrolo[1,2-a]pyrazine-2-carboxamide]",–,–,–,A (A is defined as 0% ≤ substrate protein remaining % ≤ 80%),A (A is defined as 0% ≤ substrate protein remaining % ≤ 80%),–
"CN(C)C(=O)c1cc2cnc(Nc3ccc(N4CCN(Cc5cc(N6CCC(=O)NC6=O)cnc5F)CC4)cn3)nc2n1C1CCCC1 [GT-07830, 7-cyclopentyl-2-((5-(4-((5-(2,4-dioxotetrahydropyrimidin-1(2H)-yl)-2-fluoropyridin-3-yl)methyl)piperazin-1-yl)pyridin-2-yl)amino)-N,N-dimethyl-7H-pyrrolo[2,3-d]pyrimidine-6-carboxamide]",A (A is defined as 0% ≤ substrate protein remaining % ≤ 80%),A (A is defined as 0% ≤ substrate protein remaining % ≤ 80%),–,–,–,"inhibition at 0.5 µM ([1]; at 0.5µM, read-out: Inhibition rate (%) at 0.5µM): 30 to 40%; inhibition at 2 µM ([1]; at 2 µM, read-out: Inhibition rate (%) at 2 µM): 60 to 80%"
"C[C@@H]1CNC(=O)c2cc3ccc(C(=O)Nc4cnn(Cc5ccc(N6CCN(Cc7cncc(N8CCC(=O)NC8=O)c7)CC6)cc5)c4)nc3n21 [GT-07925, (R)-N-(1-(4-(4-((5-(2,4-dioxotetrahydropyrimidin-1(2H)-yl)pyridin-3-yl)methyl)piperazin-1-yl)benzyl)-1H-pyrazol-4-yl)-9-methyl-6-oxo-6,7,8,9-tetrahydropyrido[3',2':4,5]py rrolo[1,2-a]pyrazine-2-carboxamide]",–,–,–,B (B is defined as substrate protein remaining % > 80%),A (A is defined as 0% ≤ substrate protein remaining % ≤ 80%),–
"C[C@@H]1CNC(=O)c2cc3ccc(C(=O)Nc4cnn(Cc5ccc(N6CCN(Cc7ccc(N8CCC(=O)NC8=O)cc7)CC6)cc5)c4)nc3n21 [GT-07927, (R)-N-(1-(4-(4-(4-(2,4-dioxotetrahydropyrimidin-1(2H)-yl)benzyl)piperazin-1-yl)benzyl)-1H-pyrazol-4-yl)-9-methyl-6-oxo-6,7,8,9-tetrahydropyrido[3',2':4,5]py rrolo[1,2-a]pyrazine-2-carboxamide]",–,–,–,A (A is defined as 0% ≤ substrate protein remaining % ≤ 80%),A (A is defined as 0% ≤ substrate protein remaining % ≤ 80%),–
